These are literature values, as cited in article PMC10010621, “ATP binding by an F1Fo ATP synthase ε subunit is pH dependent, suggesting a diversity of ε subunit functional regulation in bacteria” (Frontiers in Molecular Biosciences, 2023).

Details of series [1]: method as in Tanokura et al., 1976. Particulars: solution phase; ref Tanokura et al., 1976.
A further series deals with Bacillus PS3 ε subunit. Particulars: isolated ε subunit; ref Kato et al., 2007; read-out: Kd (ATP binding affinity).
Series [2] deals with Escherichia coli ε subunit. Also on record: method as in Yagi et al., 2007. Particulars: isolated ε subunit; ref Yagi et al., 2007; read-out: Kd (ATP binding affinity).
Series [3] has as its system B. subtilis ε subunit εE102A. Also on record: method as in Krah et al., 2021. To be noted: εE102A versus wild-type; ref Krah et al., 2021.
Series [4] addresses Bacillus subtilis ε subunit. Also on record: method as in Kato-Yamada, 2005; Krah et al., 2021. Particulars: isolated ε subunit; ref Kato-Yamada, 2005; Krah et al., 2021; read-out: Kd (ATP binding affinity).
For series [5], the system named is B. subtilis ε subunit εE102R. Also noted: method as in Krah et al., 2021. To be noted: εE102R versus wild-type; ref Krah et al., 2021.
The subject of series [6] is C. thermarum ε subunit NTH mutant (εD89A, εR92A). Also noted: method as in Ferguson et al., 2016. To be noted: F1 domain, ref Ferguson et al., 2016.
For series [7], the target named is εR103A/εR115A double-mutant ε subunit of Bacillus PS3. Also noted: method as in Kato-Yamada, 2016. Particulars: ref Kato-Yamada, 2016, read-out: ATP binding affinity.
The subject of series [8] is ε subunit of M. tuberculosis. Also on record: method as in Biukovic et al., 2013. To be noted: at the conditions measured; ref Biukovic et al., 2013.

Regarding `N[C@@H](Cc1c[nH]cn1)C(=O)O` [histidine], the “pKa of the imidazole group” value in series [1] is 6.0–6.5.

On to `Nc1ncnc2c1ncn2[C@@H]1O[C@H](COP(=O)(O)OP(=O)(O)OP(=O)(O)O)[C@@H](O)[C@H]1O` [ATP], for which the Kd on Bacillus PS3 ε subunit is 4.3 µM; in series [2] it was 22000 µM; in series [4], 2100 µM; in [7], 0.052 µM. In addition, the figures for the “increase in ATP binding affinity” value in series [3] and in series [5] were around 10 fold and around 54 fold, respectively. The ATP binding entry in series [6] is “lack of ability to bind ATP”; in [8], “did not bind to ATP”.
